# What was measured:
# SHP2 = target: T1, SHP2 (Homo sapiens, UniProt Q06124); assay: SHP2 allosteric inhibitor enzyme activity assay (DiFMUP fluorescence); assay type: biochemical
# T1 sequence (Q06124 1-593): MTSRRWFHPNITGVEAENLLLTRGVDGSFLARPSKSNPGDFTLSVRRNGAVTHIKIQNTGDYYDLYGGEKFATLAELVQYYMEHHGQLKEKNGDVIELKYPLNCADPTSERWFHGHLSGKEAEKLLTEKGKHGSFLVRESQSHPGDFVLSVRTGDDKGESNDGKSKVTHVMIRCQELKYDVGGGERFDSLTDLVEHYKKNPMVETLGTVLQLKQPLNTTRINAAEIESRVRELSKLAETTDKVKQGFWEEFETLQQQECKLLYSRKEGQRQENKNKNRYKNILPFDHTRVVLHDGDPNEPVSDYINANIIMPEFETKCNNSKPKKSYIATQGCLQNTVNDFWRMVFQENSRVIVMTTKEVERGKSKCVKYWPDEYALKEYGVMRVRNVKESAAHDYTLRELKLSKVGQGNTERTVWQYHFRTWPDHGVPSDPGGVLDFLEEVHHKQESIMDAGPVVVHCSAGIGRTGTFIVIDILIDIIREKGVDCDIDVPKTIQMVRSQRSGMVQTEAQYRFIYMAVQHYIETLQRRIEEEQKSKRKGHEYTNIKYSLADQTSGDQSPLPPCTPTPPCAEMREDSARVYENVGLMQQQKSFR
# How it was run: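 SHP2 activated by 0.5 μM IRS1_pY1172(dPEG8)pY1222 peptide, 0.2 ng enzyme per well, 1 h at room temperature with compound (1 μM top, 3-fold series), then DiFMUP substrate 1 h. Buffer: 60 mM HEPES, 75 mM NaCl, 75 mM KCl, 0.05% BRIJ-35, 1 mM EDTA, 5 mM DTT. Fluorescence ex 340/em 450 nm; IC50 by variable-slope fit.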
# [1] = In vitro metabolic stability in human liver microsome; assay type: in vitro ADME; conditions: human liver microsomes
# Procedure: (§1) 1900 mg MgCl2 was dissolved into a final volume of 400 mL ultra-pure water.
# (§2) 17.42 g K2HPO4 and 13.65 g KH2PO4 were dissolved into a final volume of 1000 mL ultra-pure water, respectively. K2HPO4 and KH2PO4 were mixed to prepare 100 mM potassium phosphate (PBS) buffer. The pH value of the final solution was adjusted to pH 7.30±0.10.
# (§3) Cold ACN (including 10 ng/mL Labetalol and 10 ng/mL Glibenclamid) was stored at 4° C.
# (§4) Working Solution Preparation:
# (§5) Verapamil (positive control) and test compound stock solution were diluted into a concentration of 50 μM and 200 μM respectively, using MeOH/ACN/H2O solution (1:1:2, v/v/v).
# (§6) 1) 40 μL MgCl2 and 306 μL PBS were added to 96 plate wells (blank, compound wells, compounds without NADPH wells)
# (§7) 2) 4 μL compound working solution was added to above wells (blank: 4 μL PBS buffer) (Note: the volume of DMSO in final incubation system ≤0.5%)
# (§8) 3) 10 μL microsomes (20 mg/mL) was added in each well. The mixture was warmed up for 10 minutes at 37.0° C.
# (§9) 4) 40 μL 10 mM NADPH working solution was added to start reaction. The total volume was 400 μL.
# (§10) 5) Aliquots of 50 μL samples were taken from the reaction solution at 0, 5, 15, 45 min. The reaction solutions were stopped by the addition of 400 μL stop solution.
# (§11) 6) The sampling plates were shaked for approx. 5 min.
# (§12) 7) Samples were centrifuged at 3200 rcf for 10 min. then transferred 50 μL to a new plate dilute with 200 μL H2O for LC/MS/MS analysis.
# (§13) Use equation of first order kinetics to calculate t1/2 and CL: […]
# (§14) Where k represents elimination constant, which is calculated from a log linear plot of % Remaining versus time. t1/2 represents the half-life. Cprotein is the concentration of liver microsomes.
# [2] = In vitro metabolic stability in rat liver microsome; assay type: in vitro ADME; conditions: rat liver microsomes
# Procedure: as §1, §2, §3, §4, §5, §6, §7, §8, §9, §10, §11, §12, §13, §14
# leukemia MV-4-11 cell = assay: Cell proliferation assay (CellTiter-Glo), MV-4-11; assay type: cell-based; conditions: Homo sapiens, MV4-11; MV-4-11, 120 hrs, CTG; class symbols; read-out: Compound on MV-4-11 cell IC50
# Procedure: (§15) The effects of the compounds on the proliferation of leukemia MV-4-11 cell and lung cancer NCI-H358 cell were evaluated by in vitro cell test. The assay used in this study was the CELL TITER-GLO (CTG) luminescence assay, which can detect the number of living cells by quantitative determination of ATP. Because ATP is involved in a variety of enzymatic reactions in vivo and is an indicator of the metabolism of living cells, its content can directly reflects the number and state of cells. During the experiment, Celltiter-Glo™ reagent was added to the cell culture medium to measure the luminescence value. The luminescence value was proportional to the amount of ATP, which in turn was positively correlated with the number of living cells. Therefore, ATP content can be used to detect cell viability.
# A bottle of MV-4-11 cells in logarithmic growth phase was taken, the cells were collected, centrifuged, resuspend, counted, and then inoculated into 96-well Microplate (Corning #3917), with 4000 cells inoculated in each well. The plates were placed in an incubator at 37° C. and 5% CO2 for 24 hrs culture, and the compounds of the invention were added for conducting.
# (§16) An appropriate amount of the compound of the invention was taken for cell treatment, and the final concentration of the compound from high to low was 1000 nM, 333.3 nM, 111.1 nM, 37.04 nM, 12.35 nM, 4.115 nM, 1.372 nm, 0.4572 nM, 0.1524 nM, 0 nM, respectively. The orifice plate was cultured in an incubator at 37° C. and 5% CO2. Only adding medium without adding cell hole was set as blank group. Compound concentration of 0 nM group was zero control group.
# After cultured for 120 hrs, MV-4-11 cells were added with 50 μL CellTiter-Glo® Luminescent cell viability assay solution in each well, gently shaken for 2 mins, and incubated at room temperature for 10 mins. The detection values of each well were read on the multi-functional microplate reader.
# (§17) The inhibition rate is calculated according to the luminous value reading,
# (§18) Inhibition rate %=(1−(administration group value−blank group value)/(control group value−blank group value)*100
# (§19) The log (inhibitor) vs. response variable slope of GraphPad Prism was used to fit the dose-response curve and calculate the IC50 of compounds inhibiting cell proliferation.
# [3] = tested on: lung cancer NCI-H358 cell; assay: Cell proliferation assay (CellTiter-Glo), NCI-H358; assay type: cell-based; conditions: Homo sapiens; NCI-H358, 96 hrs, CTG; class symbols; read-out: Compound on NCI-H358 cell IC50
# Procedure: as §15
# A bottle of NCI-H358 cells in logarithmic growth phase was taken, the cells were digested and resuspend, counted, and then the cell density was adjusted. After that, the cells were inoculated into a 96-well Ultra-Low Attachment Microplate (Corning #3474), 2000 cells were inoculated in each well, and the well plate was placed in an incubator at 37° C. and 5% CO2, and the compounds of the invention were added for conducting.
# as §16
# NCI-H358 cells were cultured for 96 hrs, then 50 μL CellTiter-Glo® Luminescent cell viability assay solution was added to each well, and the cells were gently shaken for 2 mins, and incubated at room temperature for 10 mins. The cell reaction system was transferred to 96-well Microplate (Corning #3917). The detection values of each well were read on the multi-functional microplate reader.
# as §17, §18, §19
# hERG channel = target: T2, hERG channel (Homo sapiens, UniProt Q12809); assay: Patch clamp assay to test the effect of compound on hERG channel; assay type: cell-based; conditions: manual patch clamp, HEK 293 cells expressed with hERG, concentration for half maximum effect
# T2 construct: expressed in transfected cells; host or cells: HEK-293
# T2 sequence (Q12809 whole entry): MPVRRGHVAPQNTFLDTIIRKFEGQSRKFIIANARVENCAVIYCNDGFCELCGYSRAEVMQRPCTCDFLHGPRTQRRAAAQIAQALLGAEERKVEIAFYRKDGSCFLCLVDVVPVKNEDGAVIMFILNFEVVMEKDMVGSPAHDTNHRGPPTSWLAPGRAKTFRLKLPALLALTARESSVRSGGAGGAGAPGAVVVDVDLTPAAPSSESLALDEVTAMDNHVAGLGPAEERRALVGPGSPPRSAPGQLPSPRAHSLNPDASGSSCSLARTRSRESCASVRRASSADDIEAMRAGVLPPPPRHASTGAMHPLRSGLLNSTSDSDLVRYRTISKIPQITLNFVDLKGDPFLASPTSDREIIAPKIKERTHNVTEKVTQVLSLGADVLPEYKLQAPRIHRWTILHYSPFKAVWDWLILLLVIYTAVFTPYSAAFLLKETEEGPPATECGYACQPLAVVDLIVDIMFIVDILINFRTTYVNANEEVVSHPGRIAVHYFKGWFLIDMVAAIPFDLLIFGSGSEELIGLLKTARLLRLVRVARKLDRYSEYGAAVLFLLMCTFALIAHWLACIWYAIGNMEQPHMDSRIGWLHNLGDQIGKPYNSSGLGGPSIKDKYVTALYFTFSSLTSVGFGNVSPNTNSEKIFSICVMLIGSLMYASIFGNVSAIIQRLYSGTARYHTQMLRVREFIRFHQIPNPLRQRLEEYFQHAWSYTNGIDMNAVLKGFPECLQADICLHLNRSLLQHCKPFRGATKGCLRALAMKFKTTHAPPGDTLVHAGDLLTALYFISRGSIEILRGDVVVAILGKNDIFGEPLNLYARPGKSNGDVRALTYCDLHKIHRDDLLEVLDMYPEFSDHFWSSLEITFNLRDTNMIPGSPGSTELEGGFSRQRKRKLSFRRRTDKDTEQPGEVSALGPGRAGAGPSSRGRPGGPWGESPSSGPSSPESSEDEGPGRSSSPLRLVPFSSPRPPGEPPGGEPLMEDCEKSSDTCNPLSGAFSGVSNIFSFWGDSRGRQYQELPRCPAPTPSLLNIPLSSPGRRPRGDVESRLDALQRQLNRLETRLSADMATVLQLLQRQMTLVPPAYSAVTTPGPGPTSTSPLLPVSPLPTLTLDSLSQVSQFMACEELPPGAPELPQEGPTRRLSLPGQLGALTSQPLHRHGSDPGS
# Procedure: 10 mL extracellular solution was used to dilute the stock solution, making the final concentrations of test compound were 0.3 μM, 1 μM, 3 μM, 10 μM and 30 μM.
# The solubility of compound was visually observed.
# The cell line was derived from HEK-293 cells, and grown in a humidified environment at 37° C. under 5% CO2, using the media formulation below. The cell line should not be allowed to exceed 80% confluence within the culture vessel to prevent contact inhibition causing senescence and should thus be passaged every 3/4 days using a seeding density of 2*10^6 cells per T175 flask. Cell lines were be pre-washed with phosphate buffered saline before harvesting with Trypsin/EDTA and seeded into new flasks.
# HEK 293 cells expressed with hERG were plated on cover slips overnight with the cell density less than 50% of confluence. Cells used for electrophysiological study were transferred to a small cell bath (1 mL) mounted on the stage of an inverted microscope (Diaphot, Nikon) and were perfused with external solution containing (in mM) 130 NaCl, 4 KCl, 1.8 CaCl2), 1 MgCl2, 10 glucose and 10 HEPES (pH 7.4 with NaOH), the perfusion rate was 4 mL/min. The internal pipette solution contained (in mM) 130 KCl, 1 MgCl2, 5 ethylene glycol-bis(baminoethyl ether)-N,N,N8,N8-tetraacetic acid, 5 MgATP and 10 HEPES (pH 7.2 with KOH). An HEKA EPC-10 patch-clamp amplifier and PATCHMASTER acquisition program were used to record membrane currents (HEKA Instruments IncD-67466 Lambrecht/Pfalz Germany). All experiments were performed at room temperature (22-23° C.).
# The Model P-97 micropipette puller (Sutter Instrument Company, One Digital Drive, Novato, Calif. 94949) was used to pull glass patch pipettes (BF150-86-10) in all experiments.
# The experiments were initiated with a 2 min vehicle control period after forming a whole cell configuration with less 5% run-down in 5 min and the tail currents in the report were at least greater than 500 pA. After a 2 min vehicle control period, the perfusion was switched to the reservoir containing the compound at the first concentration. The same procedure was repeated 3-5 times so that each cell was exposed to 4-6 escalating concentrations of compound. The time courses for block and unblock of hERG during compounds exposure and washout were continuously recorded.
# The peak tail of hERG was generated by applying 2-sec depolarizing every 12 sec steps from a holding potential of −80 mV, the peak of tail currents were measured at a 5-sec repolarizing pulse at −50 mV.
# hERG peak tail currents were directly measured from a 5 sec repolarization pulse at −50 mV. The fraction of control current was plotted as a function of logarithm of compound concentration. To determine the concentration of compound for halfmaximum effect, the concentration-response curve was fitted by Hill equation as shown follow.
# where Y is the observed value, Bottom is the lowest observed value (0), Top is the highest observed value (1), and the Hillcoefficient gives the largest absolute value of the slope of the curve.
# Data were analyzed by a combination of PATCHMASTER ((HEKA Instruments IncD-67466 Lambrecht/Pfalz Germany) and Origin (OriginLab Corporation, Northampton, Mass.) software programs.
# Data were expressed as mean±SEM.
SMILES,IC50 (SHP2; class symbols) [µM],IC50 (hERG channel) [µM],further results
"N[C@@H]1c2ccccc2CC12CCN(c1nc3[nH]nc(C4(c5ccc(OC(F)(F)F)cc5)CC4)c3c(=O)[nH]1)CC2 [Example 233, (S)-6-(1-amino-1,3-dihydrospiro[indene-2,4′-piperidin]-1′-yl)-3-(1-(4-(trifluoromethoxy)phenyl)cyclo-propyl)-1,5-dihydro-4H-pyrazolo[3,4-d]pyrimidin-4-one]",≤ 0.02,–,CLint Human [1]: 0.2 μL/min/mg proteins; CLint Rat [2]: 3.4 μL/min/mg proteins
"CCOC(=O)Nc1ccc(C2(c3n[nH]c4nc(N5CCC6(CC5)Cc5ccccc5[C@H]6N)[nH]c(=O)c34)CC2)cc1 [Example 231, ethyl (S)-(4-(1-(6-(1-amino-1,3-dihydrospiro[indene-2,4′-piperidin]-1′-yl)-4-oxo-4,5-dihydro-1H-pyrazolo[3,4-d]pyrimidin-3-yl)cyclopropyl)phenyl)carbamate]",–,7.5,IC50 (leukemia MV-4-11 cell): ≤ 0.02 µM; IC50 [3]: 0.02 to 0.06 µM
"N[C@@H]1c2ccccc2CC12CCN(c1nc3[nH]nc(C4(c5cccc(-n6cccn6)c5)CC4)c3c(=O)[nH]1)CC2 [Example 38, (S)-3-(1-(3-(1H-pyrazol-1-yl)phenyl)cyclopropyl)-6-(1-amino-1,3-dihydrospiro[indene-2,4′-piperidin]-1′-yl)-1,5-dihydro-4H-pyrazolo[3,4-d]pyrimidin-4-one]",–,14.2,IC50 (SHP2; numeric values): 0.0031 µM
N[C@@H]1c2ccccc2CC12CCN(c1nc3[nH]nc([C@H]4C[C@@H]4c4ccccc4)c3c(=O)[nH]1)CC2 [Example 185],–,0.59,IC50 (SHP2; numeric values): 0.00048 µM
"CCC(c1ccccc1)c1n[nH]c2nc(N3CCC4(CC3)Cc3ccccc3[C@H]4N)[nH]c(=O)c12 (stereo partly drawn) [Example 217, 6-((S)-1-amino-1,3-dihydrospiro[indene-2,4′-piperidin]-1′-yl)-3-(1-phenylpropyl)-1,5-dihydro-4H-pyrazolo[3,4-d]pyrimidin-4-one]",≤ 0.02,0.54,–
"COc1ccc(C2(c3n[nH]c4nc(N5CCC6(CC5)Cc5ccccc5[C@H]6N)[nH]c(=O)c34)CC2)cc1 [Example 19, (S)-6-(1-amino-1,3-dihydrospiro[indene-2,4′-piperidin]-1′-yl)-3-(1-(4-methoxyphenyl)cyclopropyl)-1,5-dihydro-4H-pyrazolo[3,4-d]pyrimidin-4-one]",–,11.7,IC50 (leukemia MV-4-11 cell): ≤ 0.02 µM; IC50 [3]: 0.02 to 0.06 µM

# The next lines start with results.
IC50 (SHP2; class symbols) [µM],SMILES,IC50 (hERG channel) [µM],further results
≤ 0.02,"COc1ccc(C2(c3n[nH]c4nc(N5CCC6(CC5)Cc5ccccc5[C@H]6N)[nH]c(=O)c34)CC2)cc1OC [Example 221, (S)-6-(1-amino-1,3-dihydrospiro[indene-2,4′-piperidin]-1′-yl)-3-(1-(3,4-dimethoxyphenyl)cyclopropyl)-1,5-dihydro-4H-pyrazolo[3,4-d]pyrimidin-4-one]",> 30,–
≤ 0.02,"N[C@@H]1c2ccccc2CC12CCN(c1nc3[nH]nc(C4(c5nc6ccccc6o5)CC4)c3c(=O)[nH]1)CC2 [Example 252, (S)-6-(1-amino-1,3-dihydrospiro[indene-2,4′-piperidin]-1′-yl)-3-(1-(benzo[d]oxazol-2-yl)cyclopropyl)-1,5-dihydro-4H-pyrazolo[3,4-d]pyrimidin-4-one]",20.9,–

# — patent publication US20230192705A1, “SHP2 INHIBITORS, COMPOSITIONS AND USES THEREOF” (Betta Pharmaceuticals Co., Ltd, priority 2020, published 2023)
